Test results from patent US20050209343A1, “Percutaneous absorption promoters and compositions for treating athlete's foot” (priority 2002, published 2005).

How the values were obtained:
[1] = Percutaneous absorbability test: amount of antifungal agent in skin after ointment administration; conditions: for Amount of antifungal agent in skin relative to antifungal agent alone (100), value in parentheses: same test, 2 hours after administration, *p<0.05, **p<0.01 Student t-test
Method: Using clotrimazole, bifonazole, and econazole as antifungal agents, the percutaneous absorption promoting effects of reduced coenzyme Q10 and oxidized coenzyme Q10 to these antifungal agents were evaluated. The antifungal agents were separately dissolved in ethanol, mixed with heat-melted polyethylene glycol 1000 (PEG 1000) so as to have the final concentration of 1%, and prepared into ointments by allowing them to stand at room temperature. Each of heat-melted reduced coenzyme Q10 and oxidized coenzyme Q10 was mixed with the above-mentioned heat-melted PEG 1000 ointment containing each antifungal agent to prepare mixed ointments in which each of the final concentrations of coenzyme Q10s and antifungal agent is 1%.
A percutaneous absorbability test was carried out using fully fed male hairless rats (weight: 350 to 400 g). The hairless rats were mildly anesthetized with ether, and three administration parts of 3 cm square were set on the backs of each rat. To each part, 0.1 g of each ointment, i.e. the ointment containing an antifungal agent alone, the ointment containing an antifungal agent and reduced coenzyme Q10, and the ointment containing an antifungal agent and oxidized coenzyme Q10 was administered. After the lapse of 2 hours from the administration, the rat was euthanized, the administration parts were thoroughly washed, and skin was collected. The clotrimazole amounts in skin were determined by the sequential treatment subjecting the skin to homogenization, acetone extraction, concentration using a solid phase column, and high performance liquid chromatography. Each amount of bifonazole and econazole in the skin was determined by the sequential treatment subjecting the skin to homogenization, methanol extraction, and high performance liquid chromatography.
The values are the average value ±standard deviation (n=3).

[2] = Skin irritation test (Draize method); assay type: in vivo, JW rabbits
Method: A skin irritation test was carried out using JW rabbits (17 to 18 weeks old). The backs of three rabbits were dehaired by an electric hair clipper, and four divisions of administration parts of 2.5×2.5 cm square were set on each rabbit back. 0.5 g of each specimen, i.e. oxidized coenzyme Q10 and reduced coenzyme Q10 (containing 2% of oxidized coenzyme Q10) was administered on the administration parts, and the parts were covered with gauzes for specimen's fixation. After the lapse of 4 hours, the specimens were removed. Further after the lapse of 1 hour, 24 hours, 48 hours, and 72 hours, formation of erythema, crusta and dropsy was determined by the method according to Draize J. H. et al. (Exp. Ther., 82, 377-390, 1944). That is, observations were made in view of formations of erythema, crusta and dropsy, they were scored for calculation of the primary irritation indexes, and the skin irritations were evaluated based on said primary irritation indexes. As a result, all scores were 0 (i.e. no erythema, crusta or dropsy) in observation items of oxidized coenzyme Q10 and reduced coenzyme Q10.

[3] = everyday administration, 1200 mg/kg/day for 52 weeks (Williams et al. 1999); cited from earlier work

c1ccc(-c2ccc(C(c3ccccc3)n3ccnc3)cc2)cc1 (stereo not drawn) [Bifonazole, bifonazole]
Amount of antifungal agent in skin relative to antifungal agent alone (100), value in parentheses [1]: (100)

Clc1ccc(COC(Cn2ccnc2)c2ccc(Cl)cc2Cl)cc1 (stereo not drawn) [Econazole, econazole]
Amount of antifungal agent in skin relative to antifungal agent alone (100), value in parentheses [1]: (100)

COC1=C(OC)C(=O)C(C/C=C(\C)CC/C=C(\C)CC/C=C(\C)CC/C=C(\C)CC/C=C(\C)CC/C=C(\C)CC/C=C(\C)CC/C=C(\C)CC/C=C(\C)CCC=C(C)C)=C(C)C1=O [oxidized coenzyme Q10]
Increase of antifungal agent amount in skin ([1]; rat, in vivo): 20-40% | Scores for erythema, crusta and dropsy (Draize) ([2]; rabbit, in vivo): 0 | Skin irritation (based on primary irritation index) ([2]; rabbit, in vivo): no skin irritation was observed

Clc1ccccc1C(c1ccccc1)(c1ccccc1)n1ccnc1 [Clotrimazole, clotrimazole]
Amount of antifungal agent in skin relative to antifungal agent alone (100), value in parentheses [1]: (100)

COc1c(O)c(C)c(C/C=C(\C)CC/C=C(\C)CC/C=C(\C)CC/C=C(\C)CC/C=C(\C)CC/C=C(\C)CC/C=C(\C)CC/C=C(\C)CC/C=C(\C)CCC=C(C)C)c(O)c1OC [reduced coenzyme Q10]
Scores for erythema, crusta and dropsy (Draize) ([2]; 0.5 g on 2.5×2.5 cm dehaired back skin for 4 hours, observed 1, 24, 48 and 72 hours after removal, three rabbits): 0 | Skin irritation (based on primary irritation index) ([2]; 0.5 g on dehaired back skin for 4 hours, observed up to 72 hours after removal): no skin irritation was observed

COC1=C(OC)C(=O)C(C/C=C(\C)CC/C=C(\C)CC/C=C(\C)CC/C=C(\C)CC/C=C(\C)CC/C=C(\C)CC/C=C(\C)CC/C=C(\C)CC/C=C(\C)CCC=C(C)C)=C(C)C1=O [coenzyme Q10]
Toxic influence in chronic toxicity test [3]: completely no toxic influence had been observed
